Measured values: patent US6469006B1, “Antiviral indoleoxoacetyl piperazine derivatives” (priority 1999, dated 2002)

System: single-round infectious HIV-1 reporter virus
Test: microbe, parasite or virus in culture
Assay type: cell-based
Conditions: for % Inhibition @ 10 μM: Table 4; for % Inhibition @ 10 μM / % Inhibition @ 10 uM: HeLa CD4 CCR5 cells, luciferase reporter virus, 3 days after infection; for % Inhibition @ 10 uM: Table 1, Examples 35-90
Text: The virus infection was quantified 3 days after infection by measuring luciferase expression from integrated viral DNA in the infected cells (Chen et al, Ref. 41).
Virus production—Human embryonic Kidney cell line, 293, propagated in Dulbecco's Modified Eagle Medium (Life Technologies, Gaithersburg, Md.) containing 10% fetal Bovine serum (FBS, Sigma, St. Louis, Mo.).
Virus infection—Human epithelial cell line, HeLa, expressing the HIV-1 receptors CD4 and CCR5 was propagated in Dulbecco's Modified Eagle Medium (Life Technologies, Gaithersburg, Md.) containing 10% fetal Bovine serum (FBS, Sigma, St. Louis, Mo.) and supplemented with 0.2 mg/ml Geneticin (Life Technologies, Gaithersburg, Md.) and 0.4 mg/ml Zeocin (Invitrogen, Carlsbad, Calif.).
Virus-Replication defective reporter virus was produced by co-transfecting human embryonic Kidney 293 cells with an HIV-1 envelope DNA expression vector and a proviral cDNA containing an envelope deletion mutation and the luciferase reporter gene inserted in place of HIV-1 nef sequences (Chen, 1994). Transfections were performed using lipofectAMINE PLUS reagent as described by the manufacturer (Life Technologies, Gaithersburg, Md.).
1. Compound was added to HeLa CD4 CCR5 cells plated in 96 well plates at a cell density of 5×10^4 cells per well in 100 ul Dulbecco's Modified Eagle Medium containing 10% fetal Bovine serum at a concentration of <20 uM.
2. 100 ul of replication defective reporter virus in Dulbecco's Modified Eagle Medium was then added to the plated cells and compound at a multiplicity of infection (MOI) of 0.01, resulting in a final volume of 200 ul per well and a final compound concentration of <10 uM.
3. Samples were harvested 72 hours after infection.
4. Viral infection was monitored by measuring luciferase expression from viral DNA in the infected cells using a luciferase reporter gene assay kit (Roche Molecular Biochemicals, Indianapolis, Ind.). Infected cell supernatants were removed and 50 ul of Dulbecco's Modified Eagle Medium (without phenol red) and 50 ul of luciferase assay reagent reconstituted as described by the manufacturer (Roche Molecular Biochemicals, Indianapolis, Ind.) was added per well. Luciferase activity was then quantified by measuring luminescence using a Wallac microbeta scintillation counter.

Compound | % Inhibition @ 10 μM [%] | % Inhibition @ 10 uM [%] | further results
CC1CN(C(=O)c2ccccn2)CCN1C(=O)C(=O)c1c[nH]c2c(F)ccc(F)c12 (centres unmarked) [Entry 196] | >98 |  | 
Cc1ccc(F)c2c(C(=O)C(=O)N3CCN(C(=O)c4ccccn4)CC3C)c[nH]c12 (centres unmarked) [Entry 197] | 93 |  | 
CC1CN(C(=O)c2ccc(Br)o2)CCN1C(=O)C(=O)c1c[nH]c2c(F)ccc(F)c12 (centres unmarked) [Entry 198] | >98 |  | 
COc1ccc(OC)c2c(C(=O)C(=O)N3CCN(C(=O)c4ccc(Br)o4)CC3C)c[nH]c12 (centres unmarked) [Entry 199] | >98 |  | 
COC(=O)c1cccc2c(C(=O)C(=O)N3CCN(C(=O)c4ccc(Br)o4)CC3C)c[nH]c12 (centres unmarked) [Entry 200] | >98 |  | 
CC1CN(C(=O)c2ccccn2)CCN1C(=O)C(=O)c1c[nH]c2c(F)ccc(F)c12 (centres unmarked) [Entry 201] | >98 |  | 
CC1CN(C(=O)c2ccccn2)CCN1C(=O)C(=O)c1c[nH]c2cccc(F)c12 (centres unmarked) [Entry 202] | >98 |  | 
CC1CN(C(=O)c2ccccn2)CCN1C(=O)C(=O)c1c[nH]c2cccc(Cl)c12 (centres unmarked) [Entry 203] | 80 |  | 
CC1CN(C(=O)c2ccccn2)CCN1C(=O)C(=O)c1c[nH]c2cccc(Br)c12 (centres unmarked) [Entry 204] | 50 |  | 
CC1CN(C(=O)c2ccccn2)CCN1C(=O)C(=O)c1c[nH]c2ccc(F)cc12 (centres unmarked) [Entry 205] | 61 |  | 
CC1CN(C(=O)c2ccccn2)CCN1C(=O)C(=O)c1c[nH]c2cc(Cl)ccc12 (centres unmarked) [Entry 206] | 88 |  | 
CC1CN(C(=O)c2ccccn2)CCN1C(=O)C(=O)c1c[nH]c2c(F)cccc12 (centres unmarked) [Entry 207] | >98 |  | 
COc1cccc2c(C(=O)C(=O)N3CCN(C(=O)c4ccccn4)C[C@H]3C)c[nH]c12 [Entry 208] | >98 |  | 
Cc1cccc2c(C(=O)C(=O)N3CCN(C(=O)c4ccccn4)C[C@H]3C)c[nH]c12 [Entry 209] | >98 |  | 
CCc1cccc2c(C(=O)C(=O)N3CCN(C(=O)c4ccccn4)C[C@H]3C)c[nH]c12 [Entry 210] | 88 |  | 
COc1ccc(Cl)c2[nH]cc(C(=O)C(=O)N3CCN(C(=O)c4ccccn4)C[C@H]3C)c12 [Entry 211] | >98 |  | 
COc1cccc2[nH]cc(C(=O)C(=O)N3CCN(C(=O)c4ccccn4)C[C@H]3C)c12 [Entry 213] | >98 |  | 
COc1ccc(Br)c2[nH]cc(C(=O)C(=O)N3CCN(C(=O)c4ccccn4)C[C@H]3C)c12 [Entry 214] | >98 |  | 
COc1ccc(F)c2c(C(=O)C(=O)N3CCN(C(=O)c4ccccn4)C[C@H]3C)c[nH]c12 [Entry 215] | >98 |  | 

Compound | % Inhibition @ 10 μM [%] | % Inhibition @ 10 uM [%] | further results
Nc1cccc(C(=O)N2CCN(C(=O)C(=O)c3c[nH]c4ccccc34)CC2)c1 [Example 72] |  | 87 | 
Nc1cccc(C(=O)N2CCN(C(=O)C(=O)c3c[nH]c4c(F)ccc(F)c34)CC2)c1 [Example 73] |  | >98 | 
CC1CN(C(=O)c2cccc(N)c2)CCN1C(=O)C(=O)c1c[nH]c2c(F)ccc(F)c12 (centres unmarked) [Example 74] |  | >98 | 
CC1CN(C(=O)c2ccc(N)cc2)CCN1C(=O)C(=O)c1c[nH]c2c(F)ccc(F)c12 (centres unmarked) [Example 75] |  | >98 | 
CC1CN(C(=O)c2cccc(N)c2)CCN1C(=O)C(=O)c1c[nH]c2cccc(F)c12 (centres unmarked) [Example 76] |  | >98 | 
COc1ccc(Cl)c2[nH]cc(C(=O)C(=O)N3CCN(C(=O)c4cccc(N)c4)CC3C)c12 (centres unmarked) [Example 77] |  | >98 | 
COc1ccc(Cl)c2[nH]cc(C(=O)C(=O)N3CCN(C(=O)c4ccc(N)cc4)CC3C)c12 (centres unmarked) [Example 78] |  | >98 | 
COc1cccc2[nH]cc(C(=O)C(=O)N3CCN(C(=O)c4cccc(N)c4)CC3C)c12 (centres unmarked) [Example 79] |  | >98 | 
COc1ccc(F)c2c(C(=O)C(=O)N3CCN(C(=O)c4cccc(N)c4)CC3C)c[nH]c12 (centres unmarked) [Example 80] |  | >98 | 
COc1ccc(F)c2c(C(=O)C(=O)N3CCN(C(=O)c4ccc(N)cc4)CC3C)c[nH]c12 (centres unmarked) [Example 81] |  | >98 | 
CC(=O)Oc1ccccc1C(=O)N1CCN(C(=O)C(=O)c2c[nH]c3cccc(F)c23)CC1 [Example 82] |  | 91 | 
CC(=O)Oc1cccc(C(=O)N2CCN(C(=O)C(=O)c3c[nH]c4cccc(F)c34)CC2)c1 [Example 83] |  | >98 | 
CC(=O)Oc1ccc(C(=O)N2CCN(C(=O)C(=O)c3c[nH]c4cccc(F)c34)CC2)cc1 [Example 84] |  | 98 | 
CC(=O)Oc1ccc(C(=O)N2CCN(C(=O)C(=O)c3c[nH]c4cccc(Cl)c34)CC2)cc1 [Example 85] |  | 93 | 
CC(=O)Oc1cccc(C(=O)N2CCN(C(=O)C(=O)c3c[nH]c4cccc(Cl)c34)CC2)c1 [Example 86] |  | >98 | 
O=C(C(=O)N1CCN(C(=O)c2ccccc2O)CC1)c1c[nH]c2cccc(F)c12 [Example 87] |  | 86 | 
O=C(C(=O)N1CCN(C(=O)c2cccc(O)c2)CC1)c1c[nH]c2cccc(F)c12 [Example 88] |  | >98 | 
O=C(C(=O)N1CCN(C(=O)c2ccc(O)cc2)CC1)c1c[nH]c2cccc(F)c12 [Example 89] |  | 95 | 
C[C@@H]1CN(C(=O)c2ccccn2)CCN1C(=O)C(=O)c1c[nH]c2c(C#N)cccc12 [Example 212] |  |  | inhibition at 10 µM (Human immunodeficiency virus 1, HeLa-CD4/CCR5, 72 h, read-out: % Inhibition @ 10 μM): > 98%
